Results reported in patent US20220411414A1, “INHIBITORS FOR THE B-CATENIN/B-CELL LYMPHOMA 9 (BCL9) PROTEIN-PROTEIN INTERACTION” (H. LEE MOFFITT CANCER CENTER AND RESEARCH INSTITUTE, INC., priority 2018, published 2022).

Assays:
[1] = system: TOPFlash (three wild-type Tcf binding sites) luciferase reporter; assay: Wnt-responsive TOPFlash luciferase reporter assay, SW480; assay type: cell-based; settings: Homo sapiens, 24 h treatment, read-out: TOPFlash IC50 ± SD SW480
Procedure: The TOPFlash luciferase reporter assay (in which the luciferase reporter has three wild-type Tcf4 binding sites) was performed with 4 and 5. Cell transfection and luciferase assay. FuGENE6 (E269A, Promega) 96 well plate format was used for the transfection of HEK293 and SW480 cells according to the manufacturer's instruction. HEK293 cells were co-transfected with 45 ng of TOPFlash or FOPFlash reporter gene, 135 ng pcDNA3.1-β-catenin, and 20 ng of pCMV-RL normalization reporter gene. SW480 cells were co-transfected with 60 ng of the TOPFlash or FOPFlash reporter gene and 40 ng of pCMV-RL normalization reporter. Cells were cultured in DMEM and 10% FBS at 37° C. for 24 h, and different concentrations of inhibitors or DMSO was added. After 24 h, the luciferase reporter activity was measured using the Dual-Glo system (E2940, Promega). Normalized luciferase activity in response to the treatment with 4 and 5 was compared with that obtained from the cells treated with DMSO. Experiments were performed in triplicate.

[2] = system: mRNA expression of AXIN2, LEF1, cyclin D1 (Wnt target genes); assay: Quantitative real-time PCR of Wnt target genes in SW480 cells; assay type: cell-based, human; settings: SW480, 24 h, FIG. 2
From the text: House-keeper gene HERT was used as a reference. Each set of data is expressed as mean±standard deviation (n=3).
Axin2, cyclin D1, c-myc, and LEF1 are the target genes of the canonical Wnt signaling pathway. Axin 2 is a specific target gene for the canonical Wnt signaling pathway (a. Yan D, et al., Elevated expression of axin2 and hnkd mRNA provides evidence that Wnt/beta-catenin signaling is activated in human colon tumors. Proc Natl Acad Sci USA. 2001 Dec. 18; 98(26):14973-8; b. Jho E H, et al., Wnt/beta-catenin/Tcf signaling induces the transcription of Axin2, a negative regulator of the signaling pathway. Mol Cell Biol. 2002 February; 22(4):1172-83; c. Leung J Y, et al., Activation of AXIN2 expression by beta-catenin-T cell factor. A feedback repressor pathway regulating Wnt signaling. J Biol Chem. 2002 Jun. 14; 277(24):21657-65; d. Lustig B, et al., Negative feedback loop of Wnt signaling through upregulation of conductin/axin2 in colorectal and liver tumors. Mol Cell Biol. 2002 February; 22(4):1184-93). Cyclin D1 (a. Tetsu O, et al., Nature. 1999 Apr. 1; 398(6726):422-6; b. Sansom O J, et al., Cyclin D1 is not an immediate target of beta-catenin following Apc loss in the intestine. J Biol Chem. 2005 Aug. 5; 280(31):28463-7; c. Shtutman M, et al., The cyclin D1 gene is a target of the beta-catenin/LEF-1 pathway. Proc Natl Acad Sci USA. 1999 May 11; 96(10):5522-7; d. Lin S Y, et al., Beta-catenin, a novel prognostic marker for breast cancer: its roles in cyclin D1 expression and cancer progression. Proc Natl Acad Sci USA. 2000 Apr. 11; 97(8):4262-6), c-myc (a. He T C, et al., Identification of c-MYC as a target of the APC pathway. Science. 1998 September 4; 281(5382):1509-12; b. Sansom O J, et al., Myc deletion rescues Ape deficiency in the small intestine. Nature. 2007 Apr. 5; 446(7136):676-9), and LEF1 (Hovanes K, et al., Beta-catenin-sensitive isoforms of lymphoid enhancer factor-1 are selectively expressed in colon cancer. Nat Genet. 2001 May; 28(1):53-7.; Filali M, et al., Wnt-3A/beta-catenin signaling induces transcription from the LEF-1 promoter. J Biol Chem. 2002 Sep. 6; 277(36):33398-410; Li T W, et al., Wnt activation and alternative promoter repression of LEF1 in colon cancer. Mol Cell Biol. 2006 July; 26(14):5284-99; Nguyen D X, et al., WNT/TCF signaling through LEF1 and HOXB9 mediates lung adenocarcinoma metastasis. Cell. 2009 Jul. […] Quantitative real-time PCR studies were also conducted to evaluate the inhibitory effects of 4 on the mRNA levels of Wnt target genes.
Quantitative real time PCR analysis. SW480 cells at 1×10^6/mL were treated with different concentrations of 4 for 24 h. […] Quantitative PCR (qPCR) was performed using the iQ™ SYBR green supernix kit (170-8880, BIO-RAD) on an iQ^5 multicolor real-time PCR reaction system (BIO-RAD). […]

SMILES: Cl.Cl.O=C(Nc1ccc(O[C@@H]2CCNC2)c(-c2cccc(-c3nn[nH]n3)c2)c1)c1ccc(O[C@H]2CCNC2)c(-c2ccc(F)c(F)c2)c1 [Compound 4, 3′,4′-difluoro-6-(((S)-pyrrolidin-3-yl)oxy)-N-(6-(((R)-pyrrolidin-3-yl)oxy)-3′-(2H-tetrazol-5-yl)-[1,1′-biphenyl]-3-yl)-[1,1′-biphenyl]-3-carboxamide dihydrochloride]
- IC50 [1]: 25 ± 2.7 µM
- mRNA of house-keeper gene HERT [2]: did not inhibit
- transcription of Axin2 [2]: dose-dependently inhibit
- transcription of LEF1 [2]: dose-dependently inhibit
- transcription of cyclin D1 [2]: dose-dependently inhibit
